A short description of data set [1]: ex vivo stability in mouse plasma. It is filed as in vitro ADME. The conditions noted are these: 100 μg/ml, room temperature, 0-180 min. The protocol: (§1) An ex vivo evaluation of drug stability was conducted in mouse and human plasma samples (WuXi AppTec, Shanghai, China). […] Samples were, thereafter, incubated at room temperature for 0, 15, 30, 60, 120, and 180 min before immediate drug extraction. […] Extraction was performed by adding ethyl acetate containing the internal standard (donepezil—known to undergo first-pass hepatic metabolism) to the spiked sample (100 μL), vortexed for 1 min, and centrifuged at 13,000 rpm, 4 °C for 10 min. The supernatant was used for LC–MS/MS analysis.
(§2) LC–MS/MS analysis was performed with a Vanquish Flex UHPLC (Thermo Scientific) and a Orbitrap Exploris 240 mass spectrometer (Thermo Scientific). Samples were separated on a C18 UHPLC column (100 mm × 2.1 mm, 3 μm; Thermo Scientific). The mobile phase A for LC separation was 0.1% formic acid and the mobile phase B was 0.1% formic acid in methanol. The chromatography gradient was designed for a linear increase from 5% B in 1 min, 5% B to 95% B in 8 min, 95% B in 3 min, and 5% B in 3 min. The flow rate was maintained at 0.3 mL/min. Mass spectra were acquired using the data-dependent Top 4 MS2 (ddMS2) method with a mass scan (100–1000 m/z) and 120,000 MS resolution.

Data set [2] can be described thus: ex vivo stability in human plasma. It is filed as in vitro ADME. The conditions noted are these: 100 μg/ml, room temperature, 0-180 min. On the procedure: as §1, §2
For data set [3] the following is noted: cited from earlier work.
The test system of another data set is p-glycoprotein. Further details: method as in PMID 21825263. The note with it: cited from earlier work.
A further data set has as its system Aiolos. The data set can be described thus: Aiolos degradation, Western blot in MM.1S cells. It is filed as cell-based, human. The conditions noted are these: 4 h, 0.1 to 10 μM, Aiolos/GAPDH, read-out: IC50 to lower Aiolos protein expression. The protocol: (§3) This cell line was obtained from the Korean Cell Line Bank (catalog no. 30105; Seoul, Korea), grown in DMEM (supplemented with 10% FBS, penicillin 100 U/mL and streptomycin 100 μg/mL, and maintained at 37 °C and 5% CO2). […] These were grown in RPMI media supplemented with 10% FBS, penicillin 100 U/mL, and streptomycin […], and maintained at 37 °C and 5% CO2. MM.1S cells were treated with drug (0.1 to 10 μM) for 4 h, and their cell lysates were prepared for Western blot analysis, as described previously.
(§4) For Western blot analysis, total proteins were extracted using RIPA buffer (Thermo Fisher Scientific, Waltham, MA) containing Halt Protease Inhibitor Cocktail (Thermo Fisher Scientific). Thereafter, proteins were separated by gel electrophoresis and then transferred to polyvinylidene difluoride (PVDF) membranes (Thermo Fisher Scientific), as detailed previously. The following primary antibodies were used: (i) anti-SALL4 antibody (catalog no. ab29112; 1:1000; Abcam, UK); (ii) anti-Aiolos antibody (catalog no. 15103; 1:1000; Cell Signaling Technology, Danvers, MA, USA); and (iii) anti-GAPDH antibody (catalog no. ab8245; 1:5000; Abcam, Cambridge, UK). […] Antigen–antibody complexes were detected using enhanced chemiluminescence (Thermo Fisher Scientific, iBright CL1500).
(Immunoblotting shows a protein as a band on a membrane.)

The subject of another data set is SALL4. The data set can be described thus: SALL4 degradation, Western blot in Tera-1 cells. It is filed as cell-based, human. The note with it: 4 h, 0.1 to 10 μM, SALL4/GAPDH, read-out: IC50 to lower SALL4 protein expression. On the procedure: as §3, §4

Take `Nc1cccc2c1C(=S)N(C1CCC(=S)NC1=O)C2=O` (stereo not drawn) [3,6′-DTP, 3,6′-dithiopomalidomide, reference compound]: in data set [1], the “ex vivo stability in mouse plasma” value was “rapidly disappears”. Besides, in data set [2], the “ex vivo stability in human plasma” value is reported as “rapidly disappears”.

Regarding `Nc1cccc2c1CN(C1CCC(=O)NC1=O)C2=O` (stereo not drawn) [Lenalidomide], in data set [3], the CSF/plasma ratio was 0.11. Moreover, in the data set with p-glycoprotein, the “substrate for the efflux transporter p-glycoprotein” value was “substrate”.

As for `Nc1cccc2c1C(=O)N(C1CCC(=O)NC1=O)C2=O` (stereo not drawn) [Pom, Pomalidomide], the half-maximal inhibitory concentration (IC50) with Aiolos is 60 nM; in the data set on SALL4, 40 nM.

The term IC50 denotes the concentration that inhibits the measured activity by half.

Source of the values: article PMC12172326 (Journal of Biomedical Science, 2025).
